Results from patent publication US20100179646A1 (Rainbow Medical Ltd., priority 2009, published 2010).
≈ marks a conversion by molar mass, not a printed value. Entries after “also recorded” stand apart in the source; their conditions may differ.

What was measured:
[1] = test system: Enterococcus faecalis strain G; test: Determination of the MIC, 24 hour turbidity assay (optical density at 650 nm); format: cell-based
Protocol: Materials and Methods. • A Versamax™ temperature-controlled spectrophotometeric plate reader was used to continuously monitor growth of bacteria. This device accepts standard microtiter plates and maintains a constant temperature as desired. It therefore serves both as an incubator and as a plate reader that quantitatively monitors bacterial growth by following the development of turbidity in the wells. The device is supported by software which allows generation of individual growth curves for each well. • Enterococcus faecalis strain G was used. This bacterium was selected to establish a baseline to which other bacteria may be compared in the future. It is a stable strain and is streptomycin-resistant, which allows the use of this antibiotic agent in the growth media to reduce the incidence of accidental contamination with other bacterial strains. • Growth medium and conditions. The tests were conducted using Brain-Heart Infusion broth (BHI) as growth medium. This medium contained 1 mg/100 ml glucose which is approximately equivalent to serum concentration of glucose. A temperature of 37 C was maintained throughout the test. • Antibacterial agents. […] The Triclosan was initially dissolved in […] at a concentration of 10 mg/ml. […] Two types of non-woven fabric were used. The material was cut to standard size of 6 mm2. […] The growth medium contained 1 mg/100 mL glucose, which is approximately equivalent to the concentration that may be present in human blood. […] Bacteria were added at 10^6 CFU/well and the turbidity in the well was continuously monitored for up to 24 h to monitor the growth of the bacteria. Each group consisted of 8 wells with respective concentrations. Wells containing bacteria with no antibacterial agent served as a positive control. […] Bacteria were added to the same wells at time 0 and then at 24 and 48 h. Bacterial growth was monitored for 24 h after each addition. • (c) Determination of the MIC of Triclosan: The antibacterial effect of Triclosan was tested in 24 hour assays in order to define its MIC. Each well contained 200 μL of sterile growth medium. A range of Triclosan concentrations was added to respective wells. Bacteria were added at 10^6 CFU/well, and the turbidity in the well was continuously monitored for 24 h to monitor bacterial growth. Each group consisted of 8 wells with respective concentrations. Wells containing bacteria with no antibacterial agent served as a positive control. […] Each sample was attached to a special insert that allowed the material to be inserted into the wells of a microtiter plate without interfering with turbidity measurements in that well.

[2] = GOx activity assay (o-Dianisidine/peroxidase, optical density at 490 nm); format: biochemical; conditions: 0.03 mg/ml GOx
Protocol: An assay was set up that included: • 48 mM sodium acetate buffer, pH 5.1 • 0.16 mM o-Dianisidine • 1.61% (w/v) glucose • 2 units/ml peroxidase
The above components undergo the following reactions in combination with GOx:
β-D-glucose+O2+H2O→D-Gluconolactone+H2O2 Reaction 1
H2O2+o-Dianisidine(reduced)→o-Dianisidine(oxidized) Reaction 2
The optical density of the assay at 490 nm indicates the concentration of oxidized o-Dianisidine in the assay, oxidized o-Dianisidine being the final product of Reactions 1 and 2. […] The assay was set up in a 96-well plate, in accordance with enzyme-linked immunosorbent assay (ELISA) techniques, as are known in the art. An ELISA reader, as is known in the art, was used to determine the optical density of the assay.
An assay was set up, in accordance with the techniques described with reference to Experiment 1.
The above components, in combination with glucose, undergo Reactions 1 and 2 described with reference to Experiment 1 hereinabove.
Different concentrations of glucose were added to the assay, and the optical density of the assay after five minutes was measured with 490 nm light.
The above assay was set up with sodium acetate buffer of a pH that varied from 4 to 7.7.

[3] = test system: Enterococcus faecalis strain G; conditions: GOx 6 μg/well (30 μg/mL) or higher, 72 hours, bacteria added at 0, 24 and 48 h
Protocol: Materials and Methods. • A Versamax™ temperature-controlled spectrophotometeric plate reader was used to continuously monitor growth of bacteria. This device accepts standard microtiter plates and maintains a constant temperature as desired. It therefore serves both as an incubator and as a plate reader that quantitatively monitors bacterial growth by following the development of turbidity in the wells. The device is supported by software which allows generation of individual growth curves for each well. • Enterococcus faecalis strain G was used. This bacterium was selected to establish a baseline to which other bacteria may be compared in the future. It is a stable strain and is streptomycin-resistant, which allows the use of this antibiotic agent in the growth media to reduce the incidence of accidental contamination with other bacterial strains. • Growth medium and conditions. The tests were conducted using Brain-Heart Infusion broth (BHI) as growth medium. This medium contained 1 mg/100 ml glucose which is approximately equivalent to serum concentration of glucose. […] Bacteria were added at 10^6 CFU/well and the turbidity in the well was continuously monitored for up to 24 h to monitor the growth of the bacteria. […] Bacteria were added at 10^6 CFU/well, and the turbidity in the well was continuously monitored for 24 h to monitor bacterial growth. […]

| Molecule | inhibition of bacterial growth ([1]; 4 μg/well (20 μg/mL), 24 h) | MIC ([1]; Enterococcus faecalis, 24 h, read-out: minimal inhibitory concentration (MIC)) [mg/L] | inhibition of bacterial growth ([1]; Triclosan 5 μg/well (25 μg/mL) and above, 24 h) | influence of pH on GOx activity ([2]; 1.61% (w/v) glucose, sodium acetate buffer pH 4 to 7.7) | GOx activity at glucose levels of 80-120 mg/dL ([2]; pH 5.1, after five minutes, FIG. 6A) | minimal inhibitory concentration (MIC) ([1]; 24 hour assay, BHI broth with 1 mg/100 ml glucose, 37 C, 106 CFU/well) [mg/L] | inhibition of bacterial growth ([1]; GOx 6 μg/well (30 μg/mL) or higher, 24 h) | inhibition of bacterial growth, sustained effect [3] |
| --- | --- | --- | --- | --- | --- | --- | --- | --- |
| Oc1cc(Cl)ccc1Oc1ccc(Cl)cc1Cl [Triclosan, reference compound] | failed to inhibit | 25 (≈ 86.3 µM) | substantially inhibitory |  |  |  |  |  |
| glucose oxidase [GOx] | failed to inhibit |  |  | not substantially influenced | active; also recorded: approximately constant activity | 30 | substantially inhibitory; also recorded: zero bacterial growth | substantially complete inhibition |
